Measurements reported in US20040043403A1, “Process for determining the biological activity of epidermal growth factor receptor tyrosine kinase inhibitors” (priority 2000, published 2004).

Tested on: WBC
Experiment: Real time RT-PCR gene expression in White Blood Cells
Type: cell-based, human
Details: 3 μM, 24 h
Experimental: The leucocyte-enriched fraction (buffy coat) is obtained from a healthy donor. 10 ml buffy coat, diluted with 25 ml RPMI 1640 medium is layered on 4 ml Ficoll-Paque (Pharmacia) and centrifuged at 1′200×g for 15 min. The White Blood Cell (WBC) layer at the interface is removed, the cells are washed 2 times with RPMI 1640 medium to remove platelets. WBCs are cultured in RPMI 1640 medium plus 10% Fetal Calf Serum (FCS) in T-150 flask, 100 million cells/100 ml and are incubated for 1 h at 37° C. before treatment. 20 million tissue culture cells (about 80% confluent) or 200 million WBCs are incubated for 2 or 24 h in culture medium containing 3 μM of an EGFR tyrosine kinase inhibitor or 0.03% DMSO. Total RNA from cell pellet is isolated using the RNeasy kit (Qiagen). mRNA is isolated using the oligotex mRNA purification kit (Qiagen). The quality of the obtained mRNA is tested by real time RT-PCR using beta-Actin primers (PE Applied Biosystems) with an amplicon size of 300 base pairs (bp). The total RNA is used as a reference to calculate the amount of mRNA-enrichment in the oligotex purified samples. The primers and probes are designed from mRNA sequences within the coding region or in the 3′ untranslated region (Table 2). For real time RT-PCR, RNA concentrations between 1 and 50 ng/reaction are used to obtain signals between 15-35 cycles. For each RNA preparation RT-PCR reactions are performed with and without reverse transcriptase to check for genomic DNA contamination. In all RNA samples tested, genomic DNA contamination is less than 1%. To normalize for variability in the initial concentration and quality of the total RNA, Glyceraldehyde-3-phosphate dehydrogenase (GAPDH) is used as an endogenous reference in all quantification experiments. For RT-PCR a one step, two-enzyme system is chosen. The TaqMan PCR Core Reagent Kit (PE #N808-0228) plus the reverse transcriptase MuLV (PE Biosystems # N808-0018) and RNase inhibitor (Roche Diagnostics # 799 025) are mixed as described in the manufacturers protocol. Triplicate measurements are done for target and for reference reactions. […] RT-PCR reactions are done with RNA concentrations of 2.5, 5, 10, 20, 40 and 80 ng per reaction. The absolute value of the slope of (log input amount) vs. ΔCT should be <0.1. The ΔCT value is determined by subtracting the average reference CT values from the average target CT values of the three measurements. Relative quantification is performed in triplicates, reference and target, using the RT-PCR protocol described above. […] Expression levels for the three genes, calculated relative to NCI-H520, show big differences between the various cell types (Table 5). […]

[1] = WBC, relative to DMSO-treated NCI-H520 calibrator

C[C@@H](Nc1ncnc2[nH]c(-c3ccc(O)cc3)cc12)c1ccccc1 [COMPOUND A, (R)-6-(4-hydroxy-phenyl)-4-[(1-phenyl-ethyl)-amino]-7H-pyrrolo[2,3-d]pyrimidine]
Relative Clusterin expression [1]: 2.03 n-fold
Relative TRAIL expression [1]: 22.73 n-fold
Relative VAC-beta expression [1]: 2.16 n-fold
TRAIL repression in WBCs (WBCs, versus DMSO): 2.5 fold
